Key:
[1] = system: Human peripheral blood mononuclear cells; settings: 10 nmol/L in RPMI 1640 medium with IL-2 added daily; KLF4, OCT3/4, SOX2, c-MYC by CytoTune-iPS 2.0; 14th day; FIG. 2
Experimental: Human peripheral blood mononuclear cells were put into the culture medium, and a culture medium containing about 1×10^6 monocytes was put into a 24-well plate (1st day). 1 μL of 20 μg/mL IL-2 was added to the culture medium every day. On the third day, the culture medium containing the cells was recovered from the plates, the culture medium was centrifugally separated, and the supernatant was removed. Then, 2 mL of a new HMBPP-containing medium was added to the cells, and 1 mL was put into each of two wells of a 24-well plate.
On the 6th day, the culture medium containing the cells was recovered from the plates, the culture medium was centrifugally separated, and the supernatant was removed. Then, an HMBPP-containing medium was added to the cells, and a culture medium containing 2×10^4 monocytes was put into a 96-well plate. KLF4, OCT3/4, SOX2, and c-MYC were introduced into the cells by using CytoTune-iPS 2.0 (Thermo Fisher Scientific, Inc.). The multiplicity of infection (MOI) was adjusted to be 20 to 30.
On the 7th day, the culture medium containing the cells recovered from the 96-well plate were added with a fresh HMBPP-containing medium and put into a 6-well plate. On the 8th, 10th, and 12th days, a stem cell culture medium (Stem Fit, Ajinomoto Co., Inc.) was added thereto, and thereafter, the culture medium was replaced using the stem cell culture medium.

Vγ9 gene = settings: genomic DNA of the iPS cells; γδT cells as positive control; FIG. 4
Experimental: iPS cells were induced in the same manner as in Example 1, except that HMBPP in the HMBPP-containing medium was changed to 5 μL of zoledronic acid (Zol, Sigma-Aldrich Co., LLC).

## C/C(=C\COP(=O)(O)OP(=O)(O)O)CO [HMBPP, (E)-4-hydroxy-3-methyl-but-2-enyl pyrophosphate]
[1]
  colonies of iPS cells formed: a plurality of colonies of iPS cells has been formed
Vγ9 gene
  rearranged Vγ9 gene having the J1/J2 gene in the established iPS cells: have a Vγ9 gene that has undergone rearrangement
